IC50, Papp and inhibition data for 11 molecules are collected here from ChEMBL document CHEMBL5143693, “Design and synthesis of endocannabinoid enzyme inhibitors for ocular indications” (Bioorg Med Chem Lett, 2022).

For data set [1], the target named is T1, Fatty-acid amide hydrolase 1 (Homo sapiens, UniProt O00519).
T1 sequence (O00519 whole entry): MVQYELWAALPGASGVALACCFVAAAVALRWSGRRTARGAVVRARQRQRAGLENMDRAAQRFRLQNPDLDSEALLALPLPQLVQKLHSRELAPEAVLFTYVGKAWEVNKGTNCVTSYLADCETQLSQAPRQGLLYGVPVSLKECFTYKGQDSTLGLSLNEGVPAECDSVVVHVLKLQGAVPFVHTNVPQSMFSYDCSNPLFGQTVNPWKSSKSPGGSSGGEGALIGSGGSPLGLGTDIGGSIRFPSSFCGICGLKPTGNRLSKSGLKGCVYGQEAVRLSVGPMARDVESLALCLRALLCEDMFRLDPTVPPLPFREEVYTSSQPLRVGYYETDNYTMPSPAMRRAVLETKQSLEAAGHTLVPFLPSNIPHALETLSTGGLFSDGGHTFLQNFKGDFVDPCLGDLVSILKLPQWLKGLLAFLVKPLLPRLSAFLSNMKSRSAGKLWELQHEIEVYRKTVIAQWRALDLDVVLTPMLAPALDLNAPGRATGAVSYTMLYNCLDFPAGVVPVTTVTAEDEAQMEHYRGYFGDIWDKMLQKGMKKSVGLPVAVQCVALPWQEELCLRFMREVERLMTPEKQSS
Briefly: Inhibition of FAAH (unknown origin) by fluorescence based method.

The target in data set [2] is T2, Monoglyceride lipase (Homo sapiens, UniProt Q99685).
T2 sequence (Q99685 whole entry): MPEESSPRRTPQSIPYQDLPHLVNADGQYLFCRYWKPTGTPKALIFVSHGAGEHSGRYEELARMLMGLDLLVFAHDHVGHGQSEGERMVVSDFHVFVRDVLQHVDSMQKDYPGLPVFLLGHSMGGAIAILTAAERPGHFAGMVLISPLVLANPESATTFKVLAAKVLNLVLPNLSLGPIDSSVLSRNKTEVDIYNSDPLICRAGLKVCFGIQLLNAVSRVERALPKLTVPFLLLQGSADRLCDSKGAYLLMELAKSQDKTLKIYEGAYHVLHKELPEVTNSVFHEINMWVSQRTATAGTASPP
Briefly: Inhibition of MAGL (unknown origin) by fluorescence based method.

The nature of data set [3]: Permeability of the compound by measuring lambda maximum incubated for 18 hrs by PAMPA method. The format is ADME. To be noted: read-out: permeability. A general note: In PAMPA a lipid-coated filter parts donor from acceptor wells.
In data set [4] the target is T3, Fatty-acid amide hydrolase 1 (Homo sapiens) (UniProt O00519).
T3 sequence (whole entry): T1 sequence (O00519 whole entry)
In words: Inhibition of recombinant human FAAH assessed as blockage of […] labelling at 100 uM by ABPP assay.

Data set [5] concerns the target T4, Monoglyceride lipase (Homo sapiens) (UniProt Q99685).
T4 sequence (whole entry): T2 sequence (Q99685 whole entry)
In words: Inhibition of recombinant human MAGL assessed as blockage of […] labelling at 100 uM by ABPP assay.

In data set [6] the target is T5, Fatty-acid amide hydrolase 1 (Rattus norvegicus) (UniProt P97612).
T5 sequence (whole entry): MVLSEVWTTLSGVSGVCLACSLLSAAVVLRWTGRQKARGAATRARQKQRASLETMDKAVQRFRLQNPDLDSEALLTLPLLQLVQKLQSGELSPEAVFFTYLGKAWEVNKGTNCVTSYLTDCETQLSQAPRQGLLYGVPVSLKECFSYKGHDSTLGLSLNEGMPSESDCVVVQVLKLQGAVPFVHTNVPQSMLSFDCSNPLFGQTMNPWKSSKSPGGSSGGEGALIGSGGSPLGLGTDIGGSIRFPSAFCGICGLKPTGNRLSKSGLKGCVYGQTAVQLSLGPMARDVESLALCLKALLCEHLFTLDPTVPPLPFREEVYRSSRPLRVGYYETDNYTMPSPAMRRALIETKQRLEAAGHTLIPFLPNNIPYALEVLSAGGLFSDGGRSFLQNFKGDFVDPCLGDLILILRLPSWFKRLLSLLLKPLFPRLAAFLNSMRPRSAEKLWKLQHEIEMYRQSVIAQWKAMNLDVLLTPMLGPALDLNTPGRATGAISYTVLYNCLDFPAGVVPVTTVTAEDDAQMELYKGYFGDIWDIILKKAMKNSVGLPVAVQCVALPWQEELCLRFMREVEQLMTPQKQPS
In words: Inhibition of FAAH in rat eye homogenate assessed as blockage of […] labelling by ABPP assay. The format is tissue-based.

Data set [7] has as its target T6, Monoglyceride lipase (Rattus norvegicus) (UniProt Q8R431).
T6 sequence (whole entry): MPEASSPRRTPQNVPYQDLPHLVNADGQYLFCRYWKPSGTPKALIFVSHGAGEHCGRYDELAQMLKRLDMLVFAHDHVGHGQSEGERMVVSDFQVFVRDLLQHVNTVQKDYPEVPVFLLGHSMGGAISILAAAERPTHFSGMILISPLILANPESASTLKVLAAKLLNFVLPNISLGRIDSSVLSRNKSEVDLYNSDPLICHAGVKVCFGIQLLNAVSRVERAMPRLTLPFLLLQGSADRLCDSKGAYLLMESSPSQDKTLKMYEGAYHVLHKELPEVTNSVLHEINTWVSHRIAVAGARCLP
In words: Inhibition of MAGL in rat eye homogenate assessed as blockage of […] labelling by ABPP assay. The format is tissue-based.

In data set [8] the target is T7, Fatty-acid amide hydrolase 1 (Mus musculus, UniProt O08914).
T7 sequence (O08914 whole entry): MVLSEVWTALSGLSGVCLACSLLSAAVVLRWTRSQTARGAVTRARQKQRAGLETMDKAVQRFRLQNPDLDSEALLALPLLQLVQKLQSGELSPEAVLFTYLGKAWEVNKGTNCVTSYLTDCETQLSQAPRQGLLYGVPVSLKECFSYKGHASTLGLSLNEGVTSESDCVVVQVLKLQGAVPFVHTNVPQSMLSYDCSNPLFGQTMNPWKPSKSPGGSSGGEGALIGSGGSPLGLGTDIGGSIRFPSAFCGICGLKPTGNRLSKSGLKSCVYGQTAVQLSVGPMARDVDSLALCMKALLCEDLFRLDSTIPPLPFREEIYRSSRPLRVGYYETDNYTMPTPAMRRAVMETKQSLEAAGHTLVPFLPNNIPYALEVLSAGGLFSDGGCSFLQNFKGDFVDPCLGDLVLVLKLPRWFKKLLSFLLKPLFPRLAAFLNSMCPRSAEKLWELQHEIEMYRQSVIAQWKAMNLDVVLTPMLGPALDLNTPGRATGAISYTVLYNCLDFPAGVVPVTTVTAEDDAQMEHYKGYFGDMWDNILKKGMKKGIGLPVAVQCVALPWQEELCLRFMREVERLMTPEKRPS
In words: Inhibition of mouse brain FAAH by competitive ABPP assay. The format is tissue-based.

Activity calls are given as the source filed them. The rule behind the calls is not given here.

As a reminder, the IC50 is the concentration at which inhibition is half-maximal. By inhibition is commonly meant the share of the control response that was lost under treatment.

As for `O=C(Oc1ccc([N+](=O)[O-])cc1)N1CCN(S(=O)(=O)c2ccc(Oc3ccc(Cl)cc3)cc2)CC1`, the IC50 amounted to 153 nM in data set [1] and 2060 nM in data set [2]. Moreover, the Papp at 18 h in data set [3] was 0.24 ×10⁻⁶ cm/s.
In data set [1], `O=C(Oc1ccc([N+](=O)[O-])cc1)N1CCN(S(=O)(=O)c2ccc(Oc3ccccc3Cl)cc2)CC1` registered a 50% inhibitory concentration (IC50) of 1150 nM. Further, in data set [3], the Papp at 18 h turned out to be 0.27 ×10⁻⁶ cm/s.
For `CCCCc1ccc(S(=O)(=O)N2CCN(C(=O)Oc3ccc([N+](=O)[O-])cc3)CC2)cc1`, the IC50 was determined as 179 nM in data set [1] and 759 nM in data set [2]. Further, the Papp at 18 h in data set [3] worked out at 0.26 ×10⁻⁶ cm/s. Also, the inhibition entry in data set [4], in data set [5], in data set [6] and in data set [7] was “Active” throughout.
`O=C(Oc1ccc([N+](=O)[O-])cc1)N1CCN(S(=O)(=O)c2ccc(Oc3ccc(Cl)c(Cl)c3)cc2)CC1` registered a concentration for half-maximal inhibition (IC50) in data set [1] of 317 nM. Besides, the Papp at 18 h in data set [3] stood at 0.31 ×10⁻⁶ cm/s.
As to `O=C(Oc1ccc([N+](=O)[O-])cc1)N1CCN(S(=O)(=O)c2ccc(C3CCCCC3)cc2)CC1`, in data set [1], the half-inhibitory concentration (IC50) came out at 333 nM. Further, the Papp at 18 h in data set [3] was found to be 0.24 ×10⁻⁶ cm/s.
`O=C(Oc1ccc([N+](=O)[O-])cc1)N1CCN(S(=O)(=O)c2ccc(-c3ccccc3)cc2)CC1`: the IC50 in data set [1] came to 437 nM. The Papp at 18 h in data set [3] turned out to be 0.19 ×10⁻⁶ cm/s.
`O=C(Oc1ccc([N+](=O)[O-])cc1)N1CCN(S(=O)(=O)c2ccc(Oc3ncc(C(F)(F)F)cc3Cl)cc2)CC1`: in data set [1], 2950 nM corresponded to half-maximal inhibition (IC50). Also, the Papp at 18 h in data set [3] came to 0.23 ×10⁻⁶ cm/s.
Take `O=C(Oc1ccc([N+](=O)[O-])cc1)N1CCN(S(=O)(=O)c2ccc(Oc3cccc(Cl)c3)cc2)CC1`: in data set [1], the half-inhibitory concentration (IC50) was 380 nM. Further, the Papp at 18 h in data set [3] worked out at 0.23 ×10⁻⁶ cm/s.
In turn, `O=C(Oc1ccc([N+](=O)[O-])cc1)N1CCN(S(=O)(=O)c2ccc(-c3ccc(Cl)c(Cl)c3)cc2)CC1` registered a half-maximal inhibitory concentration (IC50) in data set [1] of 382 nM. For the same molecule, the Papp at 18 h in data set [3] worked out at 0.28 ×10⁻⁶ cm/s.
As for `O=C(Oc1ccc([N+](=O)[O-])cc1)N1CCN(S(=O)(=O)c2ccc(Oc3ccccc3)cc2)CC1`, the IC50 in data set [1] came to 322 nM. Moreover, in data set [3], the Papp at 18 h came to 0.23 ×10⁻⁶ cm/s.
Turning to `O=C(Oc1ccc([N+](=O)[O-])cc1)N1CCN(S(=O)(=O)c2ccc3ccccc3c2)CC1`, the values for the half-inhibitory concentration (IC50) in data set [2] and in data set [8] were 284 nM and 10.5 nM, respectively. Besides, the Papp at 18 h in data set [3] came to 0.26 ×10⁻⁶ cm/s. The inhibition in data set [4] and in data set [5] was 100% each time. For the same molecule, the inhibition result in data set [6] and in data set [7] was “Active” in each case.
